The text below walks through data of PMC7587356, “High-Throughput Screening for Inhibitors of the SARS-CoV-2 Protease Using a FRET-Biosensor” (Molecules, 2020).

Structures can show the parent of a compound that is named as a salt. Where two headings read alike, the source gives them in different places.

The assay has as its target SARS-CoV-2 3CLpro (Severe acute respiratory syndrome coronavirus 2, UniProt P0DTD1). Put plainly: biochemical. It counts as biochemical. Also noted: Replicate_1 / Replicate_2 / mean / mean (LOPAC_screen_w_protease): unit not given here. As to conditions: for inhibition at 5 µM: 4 h; for mean (LOPAC screen with protease) / Replicate_1 (LOPAC screen with protease) / Replicate_2 (LOPAC screen with protease): primary screen at 5 µM.

[1] abbreviates: sheet LOPAC_screen_w_protease, primary screen with protease, compound at 5 µM, mean of two replicates.
The mark [2] stands for this setting: sheet LOPAC_screen_w_protease, primary screen with protease, compound at 5 µM, replicate 1.
Where [3] appears, read: sheet LOPAC_screen_w_protease, primary screen with protease, compound at 5 µM, replicate 2.
The mark [4] stands for this setting: sheet LOPAC_screen_w_protease, LOPAC1280 primary screen with protease, 5 µM compound, mean of the two replicates, read-out: mean.
The mark [5] stands for this setting: sheet LOPAC_screen_w_protease, LOPAC1280 primary screen with protease, 5 µM compound, replicate 1, read-out: Replicate_1.
The mark [6] stands for this setting: sheet LOPAC_screen_w_protease, LOPAC1280 primary screen with protease, 5 µM compound, replicate 2, read-out: Replicate_2.
Where [7] appears, read: sheet LOPAC_screen_w_protease, LOPAC1280 primary screen at 5 µM, with protease, replicate 1.
[8] abbreviates: sheet LOPAC_screen_w_protease, LOPAC1280 primary screen at 5 µM, with protease, replicate 2.
[9] abbreviates: sheet LOPAC_screen_w_protease, mean of two replicates.
Where [10] appears, read: sheet LOPAC_screen_w_protease, replicate 1.
The mark [11] stands for this setting: sheet LOPAC_screen_w_protease, replicate 2.
[12] abbreviates: sheet LOPAC_screen_w_protease, primary screen with protease, 5 µM, mean of two replicates.
[13] abbreviates: sheet LOPAC_screen_w_protease, primary screen with protease, 5 µM, replicate 1.
The mark [14] stands for this setting: sheet LOPAC_screen_w_protease, primary screen with protease, 5 µM, replicate 2.
The mark [15] stands for this setting: read-out: Replicate_1 (LOPAC_screen_w_protease).
Where [16] appears, read: read-out: Replicate_2 (LOPAC_screen_w_protease).
Setting [17] is: sheet LOPAC_screen_w_protease, primary screen of LOPAC1280 at 5 µM with protease, mean of the two replicates.
The mark [18] stands for this setting: sheet LOPAC_screen_w_protease, primary screen of LOPAC1280 at 5 µM with protease, replicate 1.
The mark [19] stands for this setting: sheet LOPAC_screen_w_protease, primary screen of LOPAC1280 at 5 µM with protease, replicate 2.
[20] abbreviates: LOPAC1280 primary screen with protease, 5 µM compound, replicate 1, read-out: Replicate_1 (LOPAC_screen_w_protease).
Setting [21] is: LOPAC1280 primary screen with protease, 5 µM compound, replicate 2, read-out: Replicate_2 (LOPAC_screen_w_protease).
Setting [22] is: LOPAC1280 primary screen with protease, 5 µM compound, mean of the two replicates.

`CCCCCCCCCCCCCCCCCC(=O)NCC(COP(=O)([O-])OCC[N+](C)(C)C)OCC` (racemic) returned a mean under setting [1] of 3.086. This molecule registered a Replicate_1 under setting [2] of 5.031. Moreover, the Replicate_2 under setting [3] was determined as 1.141.
Take `CC(Cc1ccc(O)cc1)NCC(O)c1cc(O)cc(O)c1` (centres unmarked) [Fenoterol hydrobromide]: the inhibition at 5 µM is 5.3% under setting [4], 6.58% under setting [5] and 4.02% under setting [6].
`NC(=O)OCC(COC(N)=O)c1ccccc1` [Felbamate]: the inhibition at 5 µM was determined as 2.23% (sheet LOPAC_screen_w_protease, primary screen with protease, mean of two replicates, read-out: mean); 3.62% (sheet LOPAC_screen_w_protease, primary screen with protease, replicate 1, read-out: Replicate_1); 0.843% (sheet LOPAC_screen_w_protease, primary screen with protease, replicate 2, read-out: Replicate_2).
`CC(=O)SCC[N+](C)(C)C.[Cl-]` [Acetylthiocholine chloride] returned a mean (sheet LOPAC_screen_w_protease, LOPAC1280 primary screen at 5 µM, with protease, mean of the two replicates) of 0.4496. This molecule came in with a Replicate_1 under setting [7] of 1.2654. Under setting [8], this molecule came in with a Replicate_2 of -0.3662.
`N=C(N)c1ccc(N)cc1` [4-Aminobenzamidine dihydrochloride]: the inhibition at 5 µM by setting is: (sheet LOPAC_screen_w_protease, primary screen with protease, 5 µM, mean of two replicates, read-out: mean) -0.229%; (sheet LOPAC_screen_w_protease, primary screen with protease, 5 µM, replicate 1, read-out: Replicate_1) 1.52%; (sheet LOPAC_screen_w_protease, primary screen with protease, 5 µM, replicate 2, read-out: Replicate_2) -1.98%.
Turning to `C[C@@](Cc1ccc(O)c(O)c1)(NN)C(=O)O` [S-(-)-Carbidopa], the “mean (LOPAC screen with protease)” value under setting [9] was found to be 17.4897. The “Replicate_1 (LOPAC screen with protease)” value under setting [10] was 19.273. Moreover, the “Replicate_2 (LOPAC screen with protease)” value under setting [11] came to 15.7065.
In turn, `COc1cc(CC(=O)O)ccc1O` [4-Hydroxy-3-methoxyphenylacetic acid] gave a mean under setting [12] of 0.06748. For the same molecule, under setting [13], the Replicate_1 was determined as 3.737. This molecule registered a Replicate_2 under setting [14] of -3.602.
With `O=c1c(O)c(-c2ccc(O)c(O)c2)oc2cc(O)cc(O)c12` [Quercetin dihydrate], the inhibition at 5 µM under setting [15] is 2.76% and the inhibition at 5 µM under setting [16] was 1.18%.
On to `O=C(O)c1cccnc1Nc1cccc(C(F)(F)F)c1` [Niflumic acid], for which the inhibition at 5 µM under setting [4] amounted to 4.95%, the inhibition at 5 µM under setting [5] was found to be 4.76% and the inhibition at 5 µM under setting [6] is 5.13%.
For the molecule `Br.Cc1cccc(C2CN(C)CCc3c2cc(O)c(O)c3Cl)c1` (centres unmarked) [SKF 83959 hydrobromide], the “mean (LOPAC screen with protease)” value under setting [9] came to 8.7281. Besides, the “Replicate_1 (LOPAC screen with protease)” value under setting [10] is given as 9.112. For the same molecule, the “Replicate_2 (LOPAC screen with protease)” value under setting [11] is listed as 8.344.
Turning to `C/C(=C\c1ccc(C(=O)O)cc1)c1ccc2c(c1)C(C)(C)CCC2(C)C` [TTNPB], under setting [17], the mean was 3.657. This molecule yielded a Replicate_1 under setting [18] of 5.544. Moreover, the Replicate_2 under setting [19] turned out to be 1.7694.
In the case of `CSc1ccc2c(c1)C(N1CCN(C)CC1)Cc1ccccc1S2` (centres unmarked) [Methiothepin mesylate], the inhibition at 5 µM reads like this: under setting [4], 4.09%; under setting [5], 3.76%; under setting [6], 4.42%.
On to `Cl.Clc1ccc(N2CCN(Cc3c[nH]c4ncccc34)CC2)cc1` [L-745,870 hydrochloride], for which the “mean (LOPAC_screen_w_protease)” value (LOPAC1280 primary screen with protease, 5 µM compound, mean of two replicates) came out at 1.375. In addition, for the setting “LOPAC1280 primary screen with protease, 5 µM compound, replicate 1”, the “Replicate_1 (LOPAC_screen_w_protease)” value was found to be 2.129. Also, under “LOPAC1280 primary screen with protease, 5 µM compound, replicate 2”, the “Replicate_2 (LOPAC_screen_w_protease)” value came out at 0.6216.
As to `COc1ccccc1N1CCN(CCCNc2c(C)c(=O)n(C)c(=O)n2C)CC1` [Urapidil, 5-Methyl-], the mean (sheet LOPAC_screen_w_protease, LOPAC1280 primary screen at 5 µM, with protease, mean of two replicates) was -1.384. Under setting [7], this molecule registered a Replicate_1 of -1.313. For the same molecule, under setting [8], the Replicate_2 was -1.455.
Take `CC(NC(C)(C)C)C(=O)c1cccc(Cl)c1` (centres unmarked) [Bupropion hydrochloride]: the inhibition at 5 µM reads like this: (read-out: Replicate_1) 2.66%; (read-out: Replicate_2) 2.67%; (read-out: mean) 2.67%.
As for `COc1nc(C)nc(Cl)c1NC1=NCCN1.Cl` [Moxonidine hydrochloride], the mean under setting [17] was 3.905. For the same molecule, under setting [18], the Replicate_1 is reported as 2.314. Also, the Replicate_2 under setting [19] is on record as 5.497.
As for `CNCCC=C1c2ccccc2CCc2ccccc21` [Nortriptyline hydrochloride], the inhibition at 5 µM by setting is: (read-out: Replicate_1) 2.88%; (read-out: Replicate_2) 1.57%; (read-out: mean) 2.22%.
`COc1cccc(-c2cc(=O)c3ccccc3o2)c1N` [PD 98,059] had a Replicate_1 of 3.541, a Replicate_2 of 1.402 and a mean of 2.471.
For the molecule `N#C/C(=C\c1ccc(O)c(O)c1)C(=O)N1CCc2ccccc21` [Tyrphostin AG 528], under setting [17], the mean was 3.92. Besides, under setting [18], the Replicate_1 came out at 3.707. The molecule further displayed a Replicate_2 under setting [19] of 4.133.
`C[C@]12CCC(=O)C=C1CC[C@@H]1[C@@H]2[C@@H](O)C[C@@]2(C)[C@H]1CC[C@]2(O)C(=O)COC(=O)CCC(=O)[O-].[Na+]` [Hydrocortisone 21-hemisuccinate sodium]: the mean (sheet LOPAC_screen_w_protease, LOPAC1280 at 5 µM, mean of two replicates) came out at 1.066. For the same molecule, the Replicate_1 (sheet LOPAC_screen_w_protease, LOPAC1280 at 5 µM, replicate 1) was found to be 1.635. Where the note is “sheet LOPAC_screen_w_protease, LOPAC1280 at 5 µM, replicate 2”, this molecule registered a Replicate_2 of 0.4974.
As to `C=C(C)[C@H]1CN[C@H](C(=O)O)[C@H]1CC(=O)O` [Kainic acid], the “mean (LOPAC_screen_w_protease)” value amounted to 1.974. For the same molecule, the inhibition at 5 µM under setting [15] came to 1.88%. The inhibition at 5 µM under setting [16] was 2.07%.
Consider `CCOC(=O)c1ncn2c1CN(C)C(=O)c1cc(F)ccc1-2` [Flumazenil], for which the inhibition at 5 µM reads like this: (sheet LOPAC_screen_w_protease, primary screen with protease, compound at 5 µM, mean of two replicates, read-out: mean) 3.1%; (sheet LOPAC_screen_w_protease, primary screen with protease, compound at 5 µM, replicate 1, read-out: Replicate_1) 5.09%; (sheet LOPAC_screen_w_protease, primary screen with protease, compound at 5 µM, replicate 2, read-out: Replicate_2) 1.11%.
Consider `Nc1ccc(CCNc2ncnc3c2ncn3[C@@H]2O[C@H](CO)[C@@H](O)[C@H]2O)cc1` [N6-2-(4-Aminophenyl)ethyladenosine], for which, under setting [17], the mean is given as 3.204. The Replicate_1 under setting [18] worked out at 3.6817. Under setting [19], this molecule had a Replicate_2 of 2.726.
The molecule `C=CC[C@H](N)C(=O)O` [L-allylglycine] displayed a mean under setting [12] of 0.3305. Further, the Replicate_1 under setting [13] was -0.7105. Under setting [14], this molecule gave a Replicate_2 of 1.372.
Turning to `CNCCCN1c2ccccc2CCc2ccccc21` [Desipramine hydrochloride], the “mean (LOPAC_screen_w_protease)” value is 1.646. The inhibition at 5 µM under setting [15] was found to be 1.71%. Under setting [16], the inhibition at 5 µM was 1.58%.
`CCCCS(=N)(=O)CC[C@H](N)C(=O)O` (stereo partly drawn) [L-Buthionine-sulfoximine]: the inhibition at 5 µM by setting is: under setting [20], 1.94%; under setting [21], 2.27%. The “mean (LOPAC_screen_w_protease)” value under setting [22] came to 2.107.
Under setting [1], `COc1ccccc1N1CCN(CCN(C(=O)c2ccc(I)cc2)c2ccccn2)CC1.Cl` [p-MPPI hydrochloride] had a mean of 3.1199. In addition, under setting [2], the Replicate_1 came out at 5.19. Besides, the Replicate_2 under setting [3] turned out to be 1.05.
Regarding `C[C@@]12C(=O)OC(=O)[C@]1(C)[C@H]1CC[C@@H]2O1` [Cantharidin], the inhibition at 5 µM came out at 1.95% (read-out: Replicate_1), 0.0268% (read-out: Replicate_2) and 0.988% (read-out: mean).
As for `CN[C@@H]1C[C@@H](c2ccc(Cl)c(Cl)c2)c2ccccc21` [Indatraline hydrochloride], the inhibition at 5 µM runs as follows: under setting [20], 1.51%; under setting [21], 2.53%. Besides, under setting [22], the “mean (LOPAC_screen_w_protease)” value is on record as 2.022.
`O=C1Cc2c([nH]c3ccc(Br)cc23)-c2ccccc2N1` [Kenpaullone]: the inhibition at 5 µM by setting is: (read-out: Replicate_1) 1.52%; (read-out: Replicate_2) 3.46%; (read-out: mean) 2.49%.
`Cc1ccccc1CNc1ncnc2c1ncn2[C@@H]1O[C@H](CO)[C@@H](O)[C@H]1O` [Metrifudil]: the inhibition at 5 µM under setting [4] turned out to be 4.56%, the inhibition at 5 µM under setting [5] was determined as 4.09% and the inhibition at 5 µM under setting [6] was determined as 5.03%.
As to `Cl.FC(F)(F)c1cc(CO[C@H]2CCCN[C@H]2c2ccccc2)cc(C(F)(F)F)c1` [L-733,060 hydrochloride], under setting [17], the mean is reported as 3.689. This molecule also registered a Replicate_1 under setting [18] of 3.241. In addition, the Replicate_2 under setting [19] came to 4.136.
`CNC1(C)C2CCC(C2)C1(C)C` (centres unmarked) [Mecamylamine hydrochloride]: the inhibition at 5 µM runs as follows: under setting [4], 4.7%; under setting [5], 5.3%; under setting [6], 4.09%.
